Measurements as given in US9334473B2, “Three dimensional cell culture compositions and methods of use” (priority 2012, dated 2016).

Test system: human neutrophils
Test: Chemotaxis of neutrophils suspended inside G041 substrate in a gradient
Type: cell-based
Details: 45-minute video
Source text: For materials in the Examples 2-4, substrates were punched or cut into shapes, sterilized and used to setup gradients of one or more ingredients. In some tests, gradients were further applied to cells in culture. In other tests, suspension of uncultured cells was suspended inside the substrate to which a gradient was applied.
As shown in Example 9 (Brain Culture #5) cells survived without free (substrate-unbound) medium, if overlapped by another substrate with the embedded medium. Accordingly, molecule diffusion studies, and this included gradients formed in one or more substrates, were maintained for longer periods of time without significant gradient “dilution” (by otherwise present surrounding pool of medium) when applied to cells in culture (or to uncultured cells suspended inside the substrate) by way of a substrate overlap method. In short term studies in a humidified incubator, neutrophils were exposed to a gradient inside the substrate, and the substrate was not overlapped by another substrate, yet a significant fraction of cells taxed in a suitable gradient.

## Interleukin 8: cytokine applied as a gradient to neutrophils
  Chemotaxis in applied gradient: Chemotaxis of human neutrophils
